A value given as a limit tells only on which side of the number the result lay.

One experiment concerns the target T1, full length MLKL (Homo sapiens, UniProt Q8NB16).
T1 construct: purchased DiscoverX (KINOMEscan service); host or cells: HEK-293
T1 sequence (Q8NB16 1-471): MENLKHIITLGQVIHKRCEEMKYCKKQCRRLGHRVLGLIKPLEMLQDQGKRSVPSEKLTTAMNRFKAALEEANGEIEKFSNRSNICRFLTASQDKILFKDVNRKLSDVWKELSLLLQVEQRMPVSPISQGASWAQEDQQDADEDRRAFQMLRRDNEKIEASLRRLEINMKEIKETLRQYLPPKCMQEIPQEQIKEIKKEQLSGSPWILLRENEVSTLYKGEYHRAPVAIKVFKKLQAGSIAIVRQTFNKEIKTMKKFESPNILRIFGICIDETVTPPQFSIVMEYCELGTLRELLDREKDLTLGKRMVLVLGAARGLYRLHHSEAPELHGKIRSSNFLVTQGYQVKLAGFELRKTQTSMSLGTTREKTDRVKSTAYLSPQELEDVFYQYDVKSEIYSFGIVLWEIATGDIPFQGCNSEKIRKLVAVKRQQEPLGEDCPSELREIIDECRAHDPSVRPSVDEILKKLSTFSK
Description: KINOMEscan ATP-competitive probe displacement (competition binding) assay, MLKL. As to conditions: average of duplicates. As for the experimental part:
Compound binding constants (KDs) were determined at DiscoverX using their KINOMEscan assay platform. […] Briefly, full length MLKL was expressed in HEK-293 cells as a fusion with an NFκB DNA binding domain and subsequently tagged with a qPCR detection amplicon via interaction with NFκB. […] Twenty microliters of binding reactions were carried out in 384-well polypropylene plates for 1 hour at room temperature. Beads were subsequently washed and resuspended in elution buffer for 30 minutes at room temperature with shaking. The concentration of MLKL in the eluates was measured by qPCR and compound binding constants were calculated using a standard dose-response curve.
(§1) A similar approach was used to measure binding affinities for RIPK1 and RIPK3 kinase domains.

The next experiment concerns the target T2, pseudokinase His-MLKL-1 (Homo sapiens, UniProt Q8NB16).
T2 construct: sub-cloning residues 191 to 471 of the pseudokinase domain of human MLKL cDNA; made in house; host or cells: Escherichia coli BL21 (DE3)
T2 sequence (Q8NB16 191-471): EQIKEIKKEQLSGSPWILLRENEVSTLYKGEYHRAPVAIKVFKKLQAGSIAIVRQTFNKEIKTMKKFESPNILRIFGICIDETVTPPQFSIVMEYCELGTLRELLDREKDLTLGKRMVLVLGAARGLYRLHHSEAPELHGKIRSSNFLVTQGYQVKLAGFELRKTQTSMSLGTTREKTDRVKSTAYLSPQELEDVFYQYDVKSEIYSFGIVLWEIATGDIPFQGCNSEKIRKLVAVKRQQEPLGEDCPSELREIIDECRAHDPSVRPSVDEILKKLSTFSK
The experiment in a line: Second harmonic generation (SHG) conformational assay, MLKL pseudokinase domain. As to conditions: 10 μM compound; MLKL construct not given. The source says: MLKL-1 was constructed by sub-cloning residues 191 to 471 of the pseudokinase domain of human MLKL cDNA into a pET15b vector with a thrombin cleavable N-terminal six histidine fusion tag (His-MLKL-1). MLKL-2 had the same protein boundaries and fusion tag system as MLKL-1 but the dual mutations E366A and K367A were introduced using site directed mutagenesis and was expressed in the same vector (His-MLKL-2). These residues were identified as having high surface entropy and were mutated to alanine to improve crystal packing.
The labeling reaction was performed according to manufacturer’s instructions. […]
Experiments were performed on a Biodesy Delta System. […] The fundamental is directed to an arrangement of prisms integrated with the custom, glass-bottomed Biodesy Delta Read Plates, where it undergoes total internal reflection (TIR) to generate the evanescent field at the glass-lipid bilayer interface. […] The fundamental light is filtered out leaving only the SH light which is detected by a photomultiplier tube and processed with custom electronics. […] Ligand injection into the read plate is accomplished with an on-board 8-channel MEMS-based electronic pipetting system, enabling high speed and accuracy. […]
In addition, all experiments included a control buffer injection that was used to determine the significant threshold for SHG intensity change and was calculated in a similar manner. […]

For a further experiment, the target named is T3, RIPK3 kinase domain (Homo sapiens, UniProt Q9Y572).
T3 construct: purchased DiscoverX
The experiment in a line: ATP-competitive probe displacement assay, RIPK3. The class given is binding. As to conditions: average of duplicates. As for the experimental part: (§2) Compound binding constants (KDs) were determined at DiscoverX using their KINOMEscan assay platform. This competition binding assay was previously described in Karaman et al. (2008)[18]. Briefly, full length MLKL was expressed in HEK-293 cells as a fusion with an NFκB DNA binding domain and subsequently tagged with a qPCR detection amplicon via interaction with NFκB. […] Twenty microliters of binding reactions were carried out in 384-well polypropylene plates for 1 hour at room temperature. Beads were subsequently washed and resuspended in elution buffer for 30 minutes at room temperature with shaking. The concentration of MLKL in the eluates was measured by qPCR and compound binding constants were calculated using a standard dose-response curve.
as §1

For another experiment, the target named is T4, RIPK1 kinase domain (Homo sapiens, UniProt Q13546).
T4 construct: purchased DiscoverX
T4 sequence (Q13546 17-289 limits assumed): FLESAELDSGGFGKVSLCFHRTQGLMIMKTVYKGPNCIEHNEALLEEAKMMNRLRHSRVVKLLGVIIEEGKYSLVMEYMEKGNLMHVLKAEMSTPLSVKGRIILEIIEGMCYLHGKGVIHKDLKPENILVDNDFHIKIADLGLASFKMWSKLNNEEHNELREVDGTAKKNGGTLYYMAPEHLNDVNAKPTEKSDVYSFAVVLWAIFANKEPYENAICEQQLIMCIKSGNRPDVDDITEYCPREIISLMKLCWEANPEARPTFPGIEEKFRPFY
The experiment in a line: ATP-competitive probe displacement assay, RIPK1. The class given is binding. As to conditions: average of duplicates. As for the experimental part: as §2, §1

T3 sequence (Q9Y572 21-287 limits assumed): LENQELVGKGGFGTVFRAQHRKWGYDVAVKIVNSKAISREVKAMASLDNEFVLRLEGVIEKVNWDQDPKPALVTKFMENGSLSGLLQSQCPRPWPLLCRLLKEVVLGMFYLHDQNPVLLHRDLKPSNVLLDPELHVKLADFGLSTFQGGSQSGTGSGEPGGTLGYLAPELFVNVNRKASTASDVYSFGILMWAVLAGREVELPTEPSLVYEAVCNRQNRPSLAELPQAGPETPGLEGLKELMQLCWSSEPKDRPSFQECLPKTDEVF

For orientation: Kd means the free concentration of one partner at which half of the binding sites on the other are occupied at equilibrium, for simple one-to-one binding. Low readings indicate a tighter complex, high ones a looser complex. Take `Nc1nccnc1C(=O)O[C@H](C(=O)Nc1ccc(F)cc1)c1ccccc1` [cpd 5]: the Kd is 7.6 µM on full length MLKL, over 30 µM on RIPK3 kinase domain and over 30 µM on RIPK1 kinase domain. The “change in SHG intensity (in words)” value on pseudokinase His-MLKL-1 is given as “no change from baseline”.

For the origin of these results see paper PMC5104457, “ATP-Competitive MLKL Binders Have No Functional Impact on Necroptosis” (PLoS ONE, 2016).
